Measured values as given in BindingDB's records for PubMed 35442672 (Fudan University, 2022).

Target: T1, Dual specificity mitogen-activated protein kinase kinase 3 (Homo sapiens, UniProt P46734)
T1 sequence (P46734 whole entry): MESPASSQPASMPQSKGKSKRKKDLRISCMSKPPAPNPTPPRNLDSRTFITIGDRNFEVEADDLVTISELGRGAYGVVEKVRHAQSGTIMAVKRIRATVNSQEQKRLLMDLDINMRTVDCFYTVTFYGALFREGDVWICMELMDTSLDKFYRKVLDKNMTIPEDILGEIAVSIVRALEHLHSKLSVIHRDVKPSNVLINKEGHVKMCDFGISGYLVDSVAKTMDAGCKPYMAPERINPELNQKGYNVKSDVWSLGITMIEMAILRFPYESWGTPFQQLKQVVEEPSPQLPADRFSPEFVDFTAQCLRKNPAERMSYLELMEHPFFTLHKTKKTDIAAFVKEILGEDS
Experiment: Binding affinity to CM5 chip immobilized human MKK3 (20 to 347 residues) expressed in Escherichia coli BL21 (DE3) assessed as dissociation constant, Kd by surface plasmon resonance analysis

## COc1ccc([C@H]2CC(=O)c3cc(OC)cc(OC)c32)cc1
  koff: 0.00361 s⁻¹
